Assay results as given in PubChem BioAssay (NCI).
Where “and” joins values, the source holds several entries; their conditions need not be identical. Equal entries are not always repeated.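 Dose response: 5 concentrations. Exposure: 48 h. Format: 96-well plates. Endpoint: linear interpolation; highest concentration if not reached. GI50 marks 50% less growth. TGI: concentration producing complete growth inhibition.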

Experiments:
Experiment in all cases: inhibition of tumour cell growth, NCI panel, 48 h
786-0 renal = system: 786-0 renal
A498 renal = system: A498 renal
CCRF-CEM leukemia = system: CCRF-CEM leukemia
HOP-62 NSCLC = system: HOP-62 NSCLC
HOP-92 NSCLC = system: HOP-92 NSCLC
MDA-MB-231 breast = system: MDA-MB-231 breast
NCI-H460 lung = system: NCI-H460 lung
SK-OV-3 ovarian = system: SK-OV-3 ovarian
SW-620 colon = system: SW-620 colon
T-47D breast = system: T-47D breast

Compound | GI50 (786-0 renal) | TGI (786-0 renal) | GI50 (A498 renal) | TGI (A498 renal) | GI50 (CCRF-CEM leukemia) | TGI (CCRF-CEM leukemia) | GI50 (HOP-62 NSCLC) | TGI (HOP-62 NSCLC) | GI50 (HOP-92 NSCLC) | TGI (HOP-92 NSCLC) | GI50 (MDA-MB-231 breast) | TGI (MDA-MB-231 breast) | GI50 (NCI-H460 lung) | TGI (NCI-H460 lung) | GI50 (SK-OV-3 ovarian) | TGI (SK-OV-3 ovarian) | GI50 (SW-620 colon) | TGI (SW-620 colon) | GI50 (T-47D breast) | TGI (T-47D breast)
CCCCCCCC(=O)SCC/C=C/[C@@H]1CC(=O)NCc2cccc(n2)C2=N[C@@](C)(CS2)C(=O)N[C@@H](C(C)C)C(=O)O1 | 0.0989 µM | > 33.3 µM | 0.0202 µM | 0.111 µM | 0.112 µM | > 33.3 µM | 0.0252 µM | > 33.3 µM | 0.0841 µM | 0.52 µM | 0.119 µM | > 19.8 µM | 0.0167 µM | > 33.3 µM | 0.0284 µM | 0.596 µM | 0.0921 µM | 3.72 µM | 0.147 µM | 1.6 µM
CCC1CCC2C3CC=C4CC(OC(C)=O)C(N)CC4(C)C3CCC12C (configuration not stated) |  | 3.79 µM |  | 9.63 µM |  | 10 µM |  | 4.47 µM |  | 10.8 µM |  | 4.09 µM |  | 3.53 µM |  | 24.1 µM |  | 11.2 µM |  | 12.6 µM
C[C@@]1([C@H](OC(=O)c2cccc3ccccc23)C(N)=O)CO1 | 1.84 µM | 14.6 µM | 16.2 µM | 34 µM | 1.1 µM | > 100 µM | 0.978 µM | 7.29 µM | 2.81 µM | 17.3 µM | 1.27 µM | 9.12 µM | 5.5 µM | > 30.1 µM | 6.35 µM | 19.7 µM | 1.1 µM |  | 5.31 µM | 24.8 µM
CS(=O)(=O)OCCCCOS(C)(=O)=O | 539 µM | 250 µM and > 1000 µM | > 883 µM | 249 µM and > 1000 µM | 214 µM | 250 µM and > 877 µM | 492 µM | 244 µM and 983 µM | 570 µM | 250 µM and > 948 µM | > 250 µM | > 1000 µM | 223 µM | 242 µM and > 1000 µM | 804 µM | > 1000 µM | > 1000 µM | 250 µM and > 1000 µM | 336 µM | > 464 µM
S=P(C1CCCCC1)(C1CCCCC1)C(c1cccnc1)N1CCCC1 (configuration not stated) |  | 31.5 µM |  | 67.9 µM |  | 36.3 µM |  | 36.2 µM |  | 42.7 µM |  | 39.1 µM |  | 50.7 µM |  | > 100 µM |  | > 100 µM |  | > 100 µM
CCN(CC)c1ccc(CNc2cc(C)nc3ccc(OC)cc23)cc1 | 2.01 µM | 4.29 µM | 2.24 µM | 10.1 µM | 2.78 µM | 10.2 µM | 7.24 µM | 21 µM | 2 µM | 6.26 µM | 2.46 µM | 6.81 µM | 1.97 µM | 4.33 µM | 10.3 µM | 22 µM | 1.75 µM | 3.47 µM | 1.96 µM | 4.61 µM
COc1ccc2nc(-c3ccc(Cl)cc3)cc(-c3nnc(SCC(=O)Nc4ccc(/C(C)=N\O)cc4)o3)c2c1 | 1.02 µM | 3.04 µM | 2.94 µM | 11 µM | 2.49 µM | > 50 µM | 1.63 µM | 7 µM | 1.77 µM | 5.26 µM | 2.05 µM | 8.34 µM | 1.1 µM | 2.32 µM | 6.23 µM | 18.7 µM | 1.15 µM | 2.54 µM | 0.981 µM | 3.97 µM
COC1=CC(=O)c2c(O)c3c(c(O)c2C1=O)OC1(Oc2c(cc4cc(C)oc(=O)c4c2O)CC1O)C3O (configuration not stated) |  | > 100 µM |  | > 100 µM |  | > 100 µM |  | > 100 µM |  | > 100 µM |  | 54.5 µM |  | 67.8 µM |  | > 100 µM |  | > 100 µM |  | > 100 µM
Cc1ccccc1NC(=O)N/C(N)=N/c1nc(C)c(C)s1 | 0.652 µM | > 100 µM | 0.125 µM | 0.803 µM | 0.243 µM | > 100 µM | 0.404 µM | > 65.6 µM | 30 µM | > 100 µM | 1.52 µM | > 100 µM | 0.376 µM | > 100 µM | 0.596 µM | > 100 µM | 0.163 µM | > 100 µM | 0.448 µM | > 100 µM
COc1ccccc1CN=C1NC(=O)/C(=C/c2ccc3ncccc3c2)S1 | 10.9 µM | > 25 µM | 4.49 µM | 15.8 µM | 7.01 µM | > 25 µM | 7.64 µM | > 20.2 µM | 6.24 µM | 22 µM | 11.2 µM | > 25 µM | 6.91 µM | > 25 µM | 6.08 µM | > 19.2 µM | 4.54 µM | > 25 µM | 8.13 µM | 24.3 µM
Oc1ccccc1/C=N/Nc1nc2ccccc2s1 | 7.96 µM | 89 µM | 32.4 µM | > 100 µM | 4.37 µM | > 100 µM | 5.56 µM | > 100 µM | 0.74 µM | 19.5 µM | 2.49 µM | > 100 µM | 3.41 µM | > 100 µM | 15.2 µM | > 100 µM | 16.3 µM | > 100 µM | 2.11 µM | > 100 µM
C=C(C)[C@@H]1CC[C@]2(C(=O)N3CCN(C)CC3)CC[C@]3(C)[C@H](CC[C@@H]4[C@@]5(C)C/C(=C/c6ccncc6)[C@H](O)C(C)(C)[C@@H]5CC[C@]43C)[C@@H]12 | 2.71 µM | 13.3 µM | 17.4 µM | 41.1 µM | 3.3 µM | 24.5 µM | 10.1 µM | 24.7 µM | 2.88 µM | 19.2 µM | 4.46 µM | 19.3 µM | 3.95 µM | 17 µM | 12 µM | 96.5 µM | 3.75 µM | 17.7 µM | 3.02 µM | 22.4 µM
COc1ccc(-c2c(-c3cc4c(c(OC)c3OC)OCO4)noc2N)cc1 | 0.49 µM | 41.6 µM | 0.374 µM | > 100 µM | 0.4 µM | > 100 µM | 0.457 µM | > 100 µM | 0.679 µM | 46.3 µM | 2.32 µM | > 62.9 µM | 0.379 µM | > 45.2 µM | 0.34 µM | 14.3 µM | 0.235 µM | > 100 µM | 0.568 µM | > 100 µM
COc1cc(/C=C/C(=O)c2ccc(F)cc2)ccc1OCCCCOc1cc2c(cc1OC)C(=O)N1CCCC1C=N2 (configuration not stated) | 0.989 µM | 7.74 µM | 0.882 µM | 5.48 µM | 0.285 µM | 1.88 µM | 0.952 µM | 12.5 µM |  | 0.673 µM | 1.27 µM | > 21.2 µM | 0.83 µM | 6.67 µM | 1.67 µM | > 44.5 µM | 0.481 µM |  | 1.42 µM | > 33.2 µM
C/C(=N\N)C(CN1CCCCC1)C(c1ccccc1)c1c(O)c2ccccc2oc1=O (configuration not stated) |  | > 100 µM |  | > 100 µM |  | > 100 µM |  | > 100 µM |  | > 100 µM |  | > 100 µM |  | > 100 µM |  | > 100 µM |  | > 100 µM |  | > 100 µM
O=C1C2=C(C(=O)c3c(O)ccc(O)c31)N(c1cccnc1)Cc1ccccc1O2 | 0.211 µM | 0.605 µM | 2.37 µM | 5.32 µM | 0.0878 µM | 0.513 µM | 2.29 µM | 6.64 µM | 0.207 µM | 0.459 µM | 0.265 µM | 0.876 µM | 2.6 µM | 6.78 µM | 3.52 µM | 12.8 µM | 0.145 µM | 0.357 µM | 0.221 µM | 0.635 µM
